Measured values: PMC6154694, “Absorption, Metabolic Stability, and Pharmacokinetics of Ginger Phytochemicals” (Molecules : A Journal of Synthetic Chemistry and Natural …, 2017)

Columns and labels:
[1] = pH dependent kinetic solubility in hydrochloride, citrate and phosphate buffers; type: physicochemical; settings: 23 °C, kinetic from dmso stock, tested 10 to 100 µM, n = 2
Method: Calibration standards were prepared by spiking 5 μL of DMSO stock solutions into 995 μL acetonitrile/buffer (1:1) mixture. Following centrifugation (10,000 rpm, 10 min, 25 °C) the reaction samples were diluted 1:1 with acetonitrile.

[2] = Mouse pharmacokinetic study of oral GE with and without ketoconazole, plasma with and without β-glucuronidase treatment; type: in vivo, male mice (C57BL6J); settings: for Concentration Ratio (Total/Free) of GE Phenolics: GE administered group; for Concentration Ratio (Total/Free) of GE Phenolics / concentration at 0 h / concentration at 0.087 h / concentration at 0.167 h / concentration at 0.25 h / concentration at 0.5 h / concentration at 1 h / concentration at 2 h / concentration at 3 h / concentration at 4 h / concentration at 6 h / concentration at 8 h / concentration at 12 h: mouse plasma; for concentration at 0 h / concentration at 0.087 h / concentration at 0.167 h / concentration at 0.25 h / concentration at 0.5 h / concentration at 1 h / concentration at 2 h / concentration at 3 h / concentration at 4 h / concentration at 6 h / concentration at 8 h / concentration at 12 h: −βgd
Method: A solution formulation of GE was prepared by using 5% ethanol, 5% Tween 80, 40% polyethylene glycol, and 50% corn oil. The dose volume was 10 mL/kg and the dose administered was 250 mg/kg GE.
Pharmacokinetic study in male mice (C57BL6J, Harlan Laboratories, Indianapolis, IN, USA) was run with 36 animals in each group at a GE dose of 250 mg/kg with a dose volume of 10 mL/kg. One group was given GE alone and in the second group GE was co-administered with KTZ (50 mg/kg). A terminal sampling design was used to collect blood samples at 0 (pre-dose), 0.08, 0.16, 0.25, 0.5, 1, 2, 3, 4, 6, 8, and 12 h. At each time, 1 mL of blood was collected in ethylenediaminetetraacetic acid di-potassium salt (K2EDTA) tubes (BD Biosciences, Franklin Lakes, NJ, USA). Plasma was separated by centrifugation of samples at 4000 rpm for 10 min and stored below −60 °C till bioanalysis. All experiments were performed with approval from the Institutional Animal Care and Use Committee (IACUC, approval code: A14031). All animals were acclimatized for five days before dosing in the experimental area. Food and water was provided ad libitum throughout the study period. Animals were marked and housed (three per cage, n = 36 per group) in polypropylene cages and maintained in controlled environmental conditions with 12 h light and dark cycles. The temperature and humidity of the room was maintained between 22 ± 3 °C and 30% to 50%, respectively, and approximately 10–12 fresh air change cycles per hour.
To confirm the presence of GE glucuronide conjugates, plasma (100 μL) was treated with βgd (20 μL, 500 units) and incubated at 37 °C for 1 h. Each sample was analyzed twice with and without β-gd treatment. Samples without gde treatment were diluted with 20 μL of buffer. Total (conjugated + free) and free ginger phenolics data were reported following bioanalysis.
All in vitro and in vivo samples were processed by protein precipitation method. An aliquot (100 μL) of the sample was spiked with 200 μL of acetonitrile containing dihydrocapsaicin as internal standard (IS) and vortex mixed for 3 min. The tubes were centrifuged at 12,000 rpm for 10 min and an aliquot of supernatant was transferred into autosampler vials for analysis. The stock solutions of 6G, 8G, 10G, and 6S were prepared in ACN/water (70:30) at 1 mg/mL. A calibration curve (CC) range of 2–2000 ng/mL was employed for the quantification of analytes and IS concentration was 150 ng/mL for each analysis. The CC consisted of blank, blank with IS and seven non-zero calibration standards. The calibration standards were within ±15% of the nominal concentration and lower limit of quantification was within ±20% of nominal. All samples were analyzed using liquid chromatography tandem mass spectrometry (LC-MS/MS) method (Agilent 6410 series, Santa Clara, CA, USA). A positive ionization mode with multiple reaction monitoring (MRM, m/z Q1/Q3) of 6G (m/z 277.1/177.1, retention time (RT) 2.0 min), 8G (m/z 305.1/177.1, RT 4.0 min), 10G (m/z 333.1/177.1, RT 7.7 min), 6S (m/z 277.1/137.1, RT 5.1 min), and IS (m/z 308.2/137.1, RT 3.4 min) was employed. The ion spray voltage was set at 3500 V, ionization temperature was set to 300 °C and drying gas flow rate was 10 L/min. Data acquisition and quantitation were performed using Mass Hunter software (Agilent Technologies, Wilmington, DE, USA). Separation was achieved using HP1100 series LC (Agilent Technologies) with an Agilent Zorbax reversed-phase (SB-C18, 2.1 × 50 mm, 5.0 μm) column. A gradient method was employed to separate the individual GE phenolics using mobile phase A (0.1% formic acid in water) and mobile phase B (Acetonitrile). The gradient elution method with 50% B at 0 min, 90% B at 5 min, held for 2.1 min, back to 50% B at 7.1 min with a flow rate of 0.2 mL/min. An injection volume of 2 μL was used for analysis. […]

[3] = Liver microsomal stability, rat; type: in vitro ADME, IGS Sprague-Dawley rat; settings: protein 0.5 mg/mL
Method: Pooled liver microsomes from CD1 mouse, IGS Sprague-Dawley rat, Beagle dog, and mixed gender human were used for assays. Incubations (1 mL) consisted of liver microsomes (0.5 mg/mL), NADPH (1 mM) and 100 mM sodium phosphate buffer (pH 7.4). Following pre-incubation (10 min, 37 °C), reactions were initiated by spiking ACN/DMSO (80:20) stock solutions of GE phenolics (5 μL, 10 μM). Samples (100 μL) were withdrawn at 0, 5, 10, 15, 20 and 30 min and quenched with 200 μL acetonitrile containing internal standard. Concomitant NADPH-free control incubations were prepared similarly.

[4] = male, C57BL6J, mouse, plasma, po, 250 mg/kg, mouse, 250 mg/kg GE + 50 mg/kg KTZ oral, +KTZ −βgd

solubility at 2 h ([1]; 100 mM citrate buffer, aqueous buffer, pH 4, citrate buffer): > 100 µM
solubility at 2 h ([1]; 100 mM phosphate buffer, aqueous buffer, pH 7.4, phosphate buffer): > 100 µM
solubility at 2 h ([1]; simulated gastric fluid, pH 2, hydrochloride buffer): > 100 µM
AUClast Ratio ([2]; +KTZ +βgd, reference GE group co-administered with KTZ untreated with βgd): 23
AUClast Ratio ([2]; +KTZ +βgd, reference GE group untreated with βgd): 1330
AUClast Ratio ([2]; +KTZ −βgd, reference GE group untreated with βgd): 59
Concentration Ratio (Total/Free) of GE Phenolics ([2]; 0 h): 0
Concentration Ratio (Total/Free) of GE Phenolics ([2]; 0.087 h): 532
Concentration Ratio (Total/Free) of GE Phenolics ([2]; 0.167 h): 439
Concentration Ratio (Total/Free) of GE Phenolics ([2]; 0.25 h): 653
Concentration Ratio (Total/Free) of GE Phenolics ([2]; 0.5 h): 948
Concentration Ratio (Total/Free) of GE Phenolics ([2]; 1 h): 16
Concentration Ratio (Total/Free) of GE Phenolics ([2]; 2 h): 44
Concentration Ratio (Total/Free) of GE Phenolics ([2]; 3 h): 29
Concentration Ratio (Total/Free) of GE Phenolics ([2]; 4 h): 14
Concentration Ratio (Total/Free) of GE Phenolics ([2]; 6 h): 23
Concentration Ratio (Total/Free) of GE Phenolics ([2]; 8 h): 0
Concentration Ratio (Total/Free) of GE Phenolics ([2]; 12 h): 0
AUC(0-t) [2, 4]: 59.1 ng·h/mL
Cmax [2, 4]: 45.7 ng/mL
Tmax [2, 4]: 30 min
concentration at 0 h ([2]; male, C57BL6J, 250 mg/kg GE oral, 0 h): 0 ng/mL
concentration at 0.087 h ([2]; male, C57BL6J, 250 mg/kg GE oral, 0.087 h): 0.58 ± 0.45 ng/mL
concentration at 0.167 h ([2]; male, C57BL6J, 250 mg/kg GE oral, 0.167 h): 0.2 ± 0.14 ng/mL
concentration at 0.25 h ([2]; male, C57BL6J, 250 mg/kg GE oral, 0.25 h): 0.11 ± 0.05 ng/mL
concentration at 0.5 h ([2]; male, C57BL6J, 250 mg/kg GE oral, 0.5 h): 0.23 ± 0.08 ng/mL
concentration at 1 h ([2]; male, C57BL6J, 250 mg/kg GE oral, 1 h): 0.42 ± 0.42 ng/mL
concentration at 2 h ([2]; male, C57BL6J, 250 mg/kg GE oral, 2 h): 0.43 ± 0.11 ng/mL
concentration at 3 h ([2]; male, C57BL6J, 250 mg/kg GE oral, 3 h): 0.81 ± 0.66 ng/mL
concentration at 4 h ([2]; male, C57BL6J, 250 mg/kg GE oral, 4 h): 0.51 ± 0.33 ng/mL
concentration at 6 h ([2]; male, C57BL6J, 250 mg/kg GE oral, 6 h): 0.49 ± 0.3 ng/mL
concentration at 8 h ([2]; male, C57BL6J, 250 mg/kg GE oral, 8 h): 0.57 ± 0.23 ng/mL
concentration at 12 h ([2]; male, C57BL6J, 250 mg/kg GE oral, 12 h): 0.1 ± 0.05 ng/mL
concentration at 0 h ([2]; male, C57BL6J, 250 mg/kg GE with 50 mg/kg ketoconazole oral, 0 h): 0 ng/mL
concentration at 0.087 h ([2]; male, C57BL6J, 250 mg/kg GE with 50 mg/kg ketoconazole oral, 0.087 h): 0.48 ± 0.2 ng/mL
concentration at 0.167 h ([2]; male, C57BL6J, 250 mg/kg GE with 50 mg/kg ketoconazole oral, 0.167 h): 0.63 ± 0.12 ng/mL
concentration at 0.25 h ([2]; male, C57BL6J, 250 mg/kg GE with 50 mg/kg ketoconazole oral, 0.25 h): 6.93 ± 9.15 ng/mL
concentration at 0.5 h ([2]; male, C57BL6J, 250 mg/kg GE with 50 mg/kg ketoconazole oral, 0.5 h): 7560 ng/mL
concentration at 1 h ([2]; male, C57BL6J, 250 mg/kg GE with 50 mg/kg ketoconazole oral, 1 h): 17.9 ± 19.1 ng/mL
concentration at 2 h ([2]; male, C57BL6J, 250 mg/kg GE with 50 mg/kg ketoconazole oral, 2 h): 16300 ng/mL
concentration at 3 h ([2]; male, C57BL6J, 250 mg/kg GE with 50 mg/kg ketoconazole oral, 3 h): 11.7 ± 7.35 ng/mL
concentration at 4 h ([2]; male, C57BL6J, 250 mg/kg GE with 50 mg/kg ketoconazole oral, 4 h): 2.25 ± 1.56 ng/mL
concentration at 6 h ([2]; male, C57BL6J, 250 mg/kg GE with 50 mg/kg ketoconazole oral, 6 h): 3.71 ± 2.18 ng/mL
concentration at 8 h ([2]; male, C57BL6J, 250 mg/kg GE with 50 mg/kg ketoconazole oral, 8 h): 1.17 ± 0.11 ng/mL
concentration at 12 h ([2]; male, C57BL6J, 250 mg/kg GE with 50 mg/kg ketoconazole oral, 12 h): 0.67 ± 0.17 ng/mL
remaining at 0.5 h, 10 µM ([3]; IGS Sprague-Dawley, pooled liver microsomes, pH 7.4, substrate 10 µM, n = 2, read-out: % Remaining at 30 min): 9%
Intrinsic Clearance ([3]; rat liver microsomes, substrate 10 µM, 45 mg protein/g liver): 7.0 mL/min/g Liver
SMILES: CCCCCCCC(O)CC(=O)CCc1ccc(O)c(OC)c1 (centres unmarked) [8G, 8-gingerol]
